Source: patent publication US10766928B2, “Targeted conformationally-constrained kinked endosomal disrupting peptides” (priority 2012, dated 2020)
≈ marks a conversion by molar mass, not a printed value. Where two headings read alike, the source gives them in different places. Non-standard residues stand in square brackets, D forms with d. Residues, ends and D or L forms follow the SMILES beside them. *: point of attachment. Pentanoyl(5-NH-cholesteryl) = CC(C)CCC[C@@H](C)[C@H]1CC[C@H]2[C@@H]3CC=C4C[C@@H](NCCCCC(=O)*)CC[C@]4(C)[C@H]3CC[C@]12C; PEG3 = NCCOCCOCCOCCC(=O)O; Aib = CC(C)(N)C(=O)O; Ahx = NCCCCCC(=O)O; βAla = NCCC(=O)O

Columns and labels:
[1] = tested on: endosomes of Jurkat lymphocytes; assay: Endosome disruption in Jurkat lymphocytes: release of carboxyfluorescein from disulfide probe Compound 2, flow cytometry; conditions: for Efficacy (% of max. 1): % change in cellular fluorescence relative to maximal response of Compound 1 (100%); for Efficacy (% of max. 1) / Efficacy (% of 1): Jurkat; for Efficacy (% of 1): % of the effect of compound 1, calculated span of dose-response curve, ± standard deviation
Description: (§1) The effects of the compounds of the invention on human Juikat leukemia cells were evaluated using flow cytometry-based assays of potency, efficacy, and toxicity. […] Analysis of flow cytometry data by non-linear regression was used to determine IC50 values for potency with the efficacy expressed as a percentage. […] Dose-dependent effects on cellular viability after 48 h at 37° C. in culture were also measured by flow cytometry.
(§2) The # represents the compound number in accordance with Tables A, B, and C. Concentrations of compound stock solutions were determined by absorbance measurements at 280 nm. Efficacy was determined as % change in cellular fluorescence relative to the maximal response of Compound 1, defined as 100%. Potencies and efficacies in Jurkat lymphocytes were measured by flow cytometry after treatment of cells with the compounds listed and the fluorescent probe Compound 2 (2.5 μM) for 14 hours. Toxicity to this cell line was determined by flow cytometry analysis of light scattering and counterstaining with PI after treatment for 48 h at 37° C. in culture. […] N.D., not determined.
Cells were treated with fluorescent molecular probe Compound 2 (2.5 μM) and endosome disruptors for 14 hours at 37° C. Enhanced cellular fluorescence resulting from release of the pH-sensitive fluorophore Compound 3 into the cytoplasm was quantified by flow cytometry.
Natural amino acids are represented by single letter codes. Codes for non-standard elements are as follows: Ch1: (3β-Cholest-5-en-3-yl-ammonio)pentanoyl; Ch2: (Cholester-3-yl)oxy-βAla-βAla; X: ε-Ahx; U: Aib; PB: Pacific Blue fluorophore. O: 3-(2-(2-(2-aminoethoxy)ethoxy)ethoxy)propanyl.

[2] = tested on: Jurkat lymphocytes; conditions: 48 h
Description: as §1, §2

[3] = Thermodynamic solubility in PBS (pH 7.4); format: physicochemical; conditions: phosphate buffered saline
Text: Values in parentheses represent 95% confidence intervals. N.D., not determined.
Measurements represent duplicate or more replicates, with active peptides subjected to multiple replicates. ND: not determined. The peptide was non-toxic and soluble in cell culture medium at this concentration.

[4] = read-out: Potency, Table 2, EC50 ± standard deviation, Jurkat lymphocytes, disulfide-linked fluorescent probe (2.5 μM), 14 h
[5] = pH 7.4, Table 3, PBS pH 7.4, 24 h at 22° C., read-out: Solubility

solubility thermodynamic at 24 h [3, 5]	Compound	EC50 ([1]; 14 h)	IC50 [2]	Efficacy (% of max. 1) ([1]; Table 1, 14 hours)	also measured
	CC(C)CCC[C@@H](C)[C@H]1CC[C@H]2[C@@H]3CC=C4C[C@@H](NCCCCC(=O)NCCC(=O)N[C@@H](CCC(=O)O)C(=O)N[C@@H](CCC(=O)O)C(=O)NCCCCCC(=O)NC(C)(C)C(=O)NC(C)(C)C(=O)NC(C)(C)C(=O)NC(C)(C)C(=O)N[C@@H](Cc5c[nH]c6ccccc56)C(=O)N[C@@H](Cc5c[nH]c6ccccc56)C(=O)N[C@@H](C)C(=O)N[C@@H](Cc5ccc(O)cc5)C(=O)N[C@@H](Cc5c[nH]c6ccccc56)C(=O)N5CCC[C@H]5C(=O)N5CCC[C@H]5C(=O)N[C@H](C(=O)N[C@@H](C)C(N)=O)C(C)C)CC[C@]4(C)[C@H]3CC[C@]12C [Compound 20, R = BEEXUUUUWWAYWPPVA-CONH2] ({Pentanoyl(5-NH-cholesteryl)-βAla}-EE[Ahx][Aib][Aib][Aib][Aib]WWAYWPPVA-NH2)	100 nM	15 µM		
	CC(C)CCC[C@@H](C)[C@H]1CC[C@H]2[C@@H]3CC=C4C[C@@H](NCCCCC(=O)NCCC(=O)N[C@@H](CCC(=O)O)C(=O)N[C@@H](CCC(=O)O)C(=O)NCCCCCC(=O)NC(C)(C)C(=O)NC(C)(C)C(=O)NC(C)(C)C(=O)N[C@@H](C)C(=O)N[C@@H](Cc5c[nH]c6ccccc56)C(=O)N[C@@H](C)C(=O)N[C@@H](Cc5ccc(O)cc5)C(=O)N[C@@H](Cc5c[nH]c6ccccc56)C(=O)N5CCC[C@H]5C(=O)N5CCC[C@H]5C(=O)N[C@H](C(=O)N[C@@H](C)C(N)=O)C(C)C)CC[C@]4(C)[C@H]3CC[C@]12C [Compound 12, R = BEEXUUUAWAYWPPVA-CONH2] ({Pentanoyl(5-NH-cholesteryl)-βAla}-EE[Ahx][Aib][Aib][Aib]AWAYWPPVA-NH2)	400 nM	14 µM		
	CC(C)CCC[C@@H](C)[C@H]1CC[C@H]2[C@@H]3CC=C4C[C@@H](NCCCCC(=O)NCCC(=O)N[C@@H](CCC(=O)O)C(=O)N[C@@H](CCC(=O)O)C(=O)NCCCCCC(=O)NCCCCCC(=O)NC(C)(C)C(=O)NC(C)(C)C(=O)NC(C)(C)C(=O)NC(C)(C)C(=O)N[C@@H](Cc5c[nH]c6ccccc56)C(=O)N[C@@H](Cc5c[nH]c6ccccc56)C(=O)N[C@@H](C)C(=O)N[C@@H](Cc5ccc(O)cc5)C(=O)N[C@@H](Cc5c[nH]c6ccccc56)C(=O)N5CCC[C@H]5C(=O)N5CCC[C@H]5C(=O)N[C@H](C(=O)N[C@@H](C)C(N)=O)C(C)C)CC[C@]4(C)[C@H]3CC[C@]12C [Compound 21, R = BEEXXUUUUWWAYWPPVA-CONH2] ({Pentanoyl(5-NH-cholesteryl)-βAla}-EE[Ahx][Ahx][Aib][Aib][Aib][Aib]WWAYWPPVA-NH2)	100 nM	9 µM		
	CC(C)CCC[C@@H](C)[C@H]1CC[C@H]2[C@@H]3CC=C4C[C@@H](NCCCCC(=O)NCCC(=O)N[C@@H](CCC(=O)O)C(=O)N[C@@H](CCC(=O)O)C(=O)NCCCCCC(=O)NCCCCCC(=O)N[C@@H](C)C(=O)N[C@@H](C)C(=O)N[C@@H](C)C(=O)N[C@@H](Cc5c[nH]c6ccccc56)C(=O)N[C@@H](Cc5c[nH]c6ccccc56)C(=O)N[C@@H](C)C(=O)N[C@@H](Cc5ccc(O)cc5)C(=O)N[C@@H](Cc5c[nH]c6ccccc56)C(=O)N5CCC[C@H]5C(=O)N5CCC[C@H]5C(=O)N[C@H](C(=O)N[C@@H](C)C(N)=O)C(C)C)CC[C@]4(C)[C@H]3CC[C@]12C [Compound 8, R = BEEXXAAAWWAYWPPVA-CONH2] ({Pentanoyl(5-NH-cholesteryl)-βAla}-EE[Ahx][Ahx]AAAWWAYWPPVA-NH2)	400 nM	9 µM		
	CC(C)CCC[C@@H](C)[C@H]1CC[C@H]2[C@@H]3CC=C4C[C@@H](NCCCCC(=O)NCCC(=O)N[C@@H](CCC(=O)O)C(=O)N[C@@H](CCC(=O)O)C(=O)NCCOCCOCCOCCC(=O)NCCOCCOCCOCCC(=O)NC(C)(C)C(=O)NC(C)(C)C(=O)NC(C)(C)C(=O)NC(C)(C)C(=O)N[C@@H](Cc5c[nH]c6ccccc56)C(=O)N[C@@H](Cc5c[nH]c6ccccc56)C(=O)N[C@@H](C)C(=O)N[C@@H](Cc5ccc(O)cc5)C(=O)N[C@@H](Cc5c[nH]c6ccccc56)C(=O)N5CCC[C@H]5C(=O)N5CCC[C@H]5C(=O)N[C@H](C(=O)N[C@@H](C)C(=O)N[C@@H](C)C(N)=O)C(C)C)CC[C@]4(C)[C@H]3CC[C@]12C [Compound 27, R = BEEOOUUUUWWAYWPPVAA-CONH2] ({Pentanoyl(5-NH-cholesteryl)-βAla}-EE[PEG3][PEG3][Aib][Aib][Aib][Aib]WWAYWPPVAA-NH2)	200 nM	3 µM		
	CC(C)CCC[C@@H](C)[C@H]1CC[C@H]2[C@@H]3CC=C4C[C@@H](NCCCCC(=O)NCCC(=O)N[C@@H](CCC(=O)O)C(=O)N[C@@H](CCC(=O)O)C(=O)NCCCCCC(=O)NC(C)(C)C(=O)NC(C)(C)C(=O)NC(C)(C)C(=O)N[C@@H](Cc5c[nH]c6ccccc56)C(=O)N[C@@H](Cc5c[nH]c6ccccc56)C(=O)N[C@@H](C)C(=O)N[C@@H](Cc5c[nH]c6ccccc56)C(=O)N[C@@H](Cc5c[nH]c6ccccc56)C(=O)N5CCC[C@H]5C(=O)N5CCC[C@H]5C(=O)N[C@H](C(=O)N[C@@H](C)C(N)=O)C(C)C)CC[C@]4(C)[C@H]3CC[C@]12C [Compound 19, R = BEEXUUUWWAWWPPVA-CONH2] ({Pentanoyl(5-NH-cholesteryl)-βAla}-EE[Ahx][Aib][Aib][Aib]WWAWWPPVA-NH2)	1000 nM	20 µM		
63 ± 3 µM (≈ 91.4 µg/mL)	CC(C)[C@H](NC(=O)[C@@H](NC(=O)[C@@H]1CCCN1C(=O)[C@@H]1CCCN1C(=O)[C@H](Cc1c[nH]c2ccccc12)NC(=O)[C@H](C)NC(=O)[C@H](C)NC(=O)[C@H](Cc1c[nH]c2ccccc12)NC(=O)[C@H](Cc1c[nH]c2ccccc12)NC(=O)C(C)(C)NC(=O)C(C)(C)NC(=O)C(C)(C)NC(=O)C(C)(C)N)C(C)C)C(N)=O [Compound 47] (H-[Aib][Aib][Aib][Aib]WWAAWPPVV-NH2)			<<50%	EC50 [1, 4]: > 15000 nM
	CC(C)CCC[C@@H](C)[C@H]1CC[C@H]2[C@@H]3CC=C4C[C@@H](NCCCCC(=O)NCCC(=O)N[C@@H](CCC(=O)O)C(=O)N[C@@H](CCC(=O)O)C(=O)NCCCCCC(=O)N[C@@H](C)C(=O)N[C@@H](C)C(=O)N[C@@H](C)C(=O)N[C@@H](Cc5c[nH]c6ccccc56)C(=O)N[C@@H](Cc5c[nH]c6ccccc56)C(=O)N[C@@H](C)C(=O)N[C@@H](Cc5ccc(O)cc5)C(=O)N[C@@H](Cc5c[nH]c6ccccc56)C(=O)N5CCC[C@H]5C(=O)N5CCC[C@H]5C(=O)N[C@H](C(=O)N[C@@H](C)C(N)=O)C(C)C)CC[C@]4(C)[C@H]3CC[C@]12C [Compound 7, R = BEEXAAAWWAYWPPVA-CONH2] ({Pentanoyl(5-NH-cholesteryl)-βAla}-EE[Ahx]AAAWWAYWPPVA-NH2)	1000 nM	16 µM		
137 ± 8 µM	Ac-SSAWWSYWPPVA-NH2 [Compound 39, reference compound]			<<50%	Endosome disruption activity (in words) ([1]; Jurkat endosome disruption assay): devoid of biological activity; Efficacy (% of 1) ([1]; Table 2, 14 h): <2%; solubility thermodynamic at 24 h ([3]; pH 7.4, Table 1, PBS pH 7.4, 24 hours at 22° C., ±S.D., read-out: Solubility (aq.)): 173 ± 11 µM
86 ± 5 µM (≈ 123 µg/mL)	CC(C)[C@H](NC(=O)[C@@H](NC(=O)[C@@H]1CCCN1C(=O)[C@@H]1CCCN1C(=O)[C@H](Cc1c[nH]c2ccccc12)NC(=O)[C@H](Cc1ccc(O)cc1)NC(=O)[C@H](C)NC(=O)[C@H](Cc1c[nH]c2ccccc12)NC(=O)[C@H](C)NC(=O)C(C)(C)NC(=O)C(C)(C)NC(=O)C(C)(C)NC(=O)C(C)(C)N)C(C)C)C(N)=O [Compound 45] (H-[Aib][Aib][Aib][Aib]AWAYWPPVV-NH2)			<<50%	Efficacy (% of 1) ([1]; Table 2, 14 h): <10%

Compound	solubility thermodynamic at 24 h [3, 5]	EC50 ([1]; 14 h)	IC50 [2]	Efficacy (% of max. 1) ([1]; Table 1, 14 hours)	also measured
CC(C)[C@H](NC(=O)[C@@H]1CCCN1C(=O)[C@@H]1CCCN1C(=O)[C@H](Cc1c[nH]c2ccccc12)NC(=O)[C@H](Cc1ccc(O)cc1)NC(=O)[C@H](C)NC(=O)[C@H](Cc1c[nH]c2ccccc12)NC(=O)[C@H](Cc1c[nH]c2ccccc12)NC(=O)C(C)(C)NC(=O)C(C)(C)NC(=O)C(C)(C)NC(=O)C(C)(C)N)C(=O)N[C@@H](C)C(N)=O [Compound 43] (H-[Aib][Aib][Aib][Aib]WWAYWPPVA-NH2)	40 ± 2 µM (≈ 60.6 µg/mL)			64%	Efficacy (% of 1) ([1]; Table 2, 14 h): 57 ± 7%; EC50 ([1]; read-out: Potency (EC50), Table 1, Jurkat lymphocytes, probe Compound 2 (2.5 μM), 14 hours, 95% confidence interval in neighbouring cell): 10000 nM; EC50 [1, 4]: 9000 ± 3000 nM
